Tests used:
[1] = test system: Mäusen; experiment: Muscle strength of mice after treatment; type: in vivo, Mäuse; settings: Abbildung 8; for Muskelkraft: mice
Source text: (§1) WT männliche C57BL/6 Mäuse wurden von Janvier gekauft. A2B-/- Mäuse wurden von M. Idzko, Freiburg, Deutschland, zur Verfügung gestellt. ATA2B-KO (A2Bfloxed/floxed;AdipoCre+) und Con-A2B (A2Bfloxed/floxed;AdipoCre-) Mäuse wurden durch Züchtung von A2Bfloxed/floxed Mäusen (erzeugt von Holger K. Eltzschig) mit Adiponectin-Cre (Jackson Laboratories) Mäusen zur Herstellung von A2Bfloxed;AdipoCre+ heterozygoten Mäusen erzeugt. Heterozygote Mäuse wurden mit A2Bfloxed/floxed gezüchtet. Männliche Wurfgeschwister wurden zufällig experimentellen Gruppen zugeordnet. Halbfettdiät (HFD, 60% Energie aus Fett) und Kontrolldiät wurden von ssniff Spezialdiäten GmbH (Soest, DE) gekauft. Mäuse wurden in einem täglichen Zyklus von 12 Stunden Licht (0600 bis 1800) und 12 Stunden Dunkelheit (1800 bis 0600) bei 23 ± 1°C gehalten und erhielten freien Zugang zu Futter und Wasser. Für die Muskelanalyse/Sarkopenie wurden Mäusen vier Wochen lang einmal täglich intraperitoneal mit 1 mg/kg 2-({6-Amino-3,5-dicyano-4-[4-(cyclopropylmethoxy)-phenyl]-pyridin-2-yl}sulfanyl)-acetamid (Bay 60-6583) injiziert.
Extensor digitorum longus (EDL) Muskeln aus den Hinterbeinen von Mäusen wurden von Sehne zu Sehne isoliert, in eine wässrige Pufferlösung aus Krebs-Puffer (118 mM NaCl, 3,4 mM KCl, 0,8 mM MgSO4, 1,2 mM KH2PO4, 11,1 mM Glukose, 25 mM NaHCO3, 2,5 mM CaCl2) getaucht und bei Raumtemperatur mit Carbogen (ein Gasgemisch aus 5 Volumenteilen Kohlenstoffdioxid (CO2) und 95 Volumenteilen Sauerstoff (O2)) umspült. Die Muskeln wurden zwischen der Klemme eines Hebelarms und dem Haken eines Kraftaufnehmers eines Myographen (SI Instruments) ausgerichtet. Dann wurden die Muskeln gedehnt, bis ein einzelner Impuls während einer Zuckungsstimulation die maximale Kraft hervorrief. Es wurden Zuckungsstimulationen (2 V, 1 ms) für […] aufgezeichnet und die Kraft gemessen. Die gesamte Muskelquerschnittsfläche wurde geschätzt, indem die Muskelmasse durch das Produkt aus der Muskellänge, dem Verhältnis von […] (0,44 bei EDL) und der Dichte des Säugetiermuskels (1,06 mg/mm^3) dividiert wurde. […]

[2] = test system: Satellitenzellen; experiment: Isolation and amount of satellite cells from treated old mice; type: in vivo, Mäuse; settings: 1 mg/kg once daily for four weeks
Source text: as §1, with “injiziert. […]” for “injiziert.”

[3] = test system: primäre humane Skelettmuskelzellen; experiment: Glucose uptake test (abcam kit ab136956); type: cell-based; settings: primary human skeletal muscle cells, Abbildung 5
Source text: Die Glukoseaufnahme wurde mit murinen und humanen SKM-Zellen unter Verwendung des Glukoseaufnahmekits von abcam (ab136956) (abcam plc., Cambridge, UK) nach Herstellerangaben gemessen.

[4] = test system: murinem Muskelgewebe; experiment: Endogenous respiration (Oxygraph 2K): oxygen consumption of murine muscle tissue ex vivo; type: cell-based, murin; settings: Abbildung 2
Experimental: (§2) Skelettmuskelzellen oder -gewebe wurden 15 Minuten vor den […] Messungen wie angegeben behandelt (Oxygraph 2K; Oroboros Instruments). Die Proben wurden in die Oxygraphenkammer mit 2 ml Inkubationsmedium (0,5 mM Ethylenglycol-bis(aminoethylether)-N,N,N',N'-tetraessigsäure (EGTA), 3 mM MgCl2 · 6 H2O, 60 mM K-Lactobionat, 20 mM Taurin, 10 mM KH2PO4, 20 mM 2-(4-(2-Hydroxyethyl)-1-piperazinyl)-ethansulfonsäure (HEPES), 110 mM Saccharose und 1 g/l Bovines Serumalbumin (BSA), pH 7,1) gebracht. In vitro-Atmungswerte wurden bei Erreichen eines stationären Zustandes aufgezeichnet, gefolgt von der Zugabe von Substraten (Zustand 1: endogen; Zustand 2: Adenosindiphosphat (ADP); Zustand 3: Succinat; Zustand 4: Oligomycin; entkoppelt: 2,4-dinitrophenol, carbonylcyanide p-trifluoromethoxyphenyl-hydrazine (FCCP)). Die Atmungsraten wurden auf den Gesamtproteingehalt normalisiert.

[5] = test system: primären humanen Skelettmuskelzellen; experiment: Endogenous respiration (Oxygraph 2K): oxygen consumption of primary human skeletal muscle cells; type: cell-based
Experimental: as §2

[6] = test system: humanen Skelettmuskel-Explantaten; experiment: Endogenous respiration (Oxygraph 2K): oxygen consumption of human skeletal muscle explants; type: cell-based; settings: treated 15 min before measurement
Experimental: as §2

[7] = test system: Mäusen; experiment: Muscle mass in mice after treatment (muscle analysis/sarcopenia); type: in vivo, Mäuse; settings: Abbildung 6; for Muskelmasse: mice, 1 mg/kg intraperitoneal once daily for four weeks
Source text: as §1

N#Cc1c(N)nc(SCC(N)=O)c(C#N)c1-c1ccc(OCC2CC2)cc1 [BAY 60-6583, 2-({6-Amino-3,5-dicyano-4-[4-(cyclopropylmethoxy)-phenyl]pyridin-2-yl}sulfanyl)-acetamid]
Muskelkraft [1]: signifikant erhöht | Muskelkraft ([1]; listed as Bay 60-6583): signifikant gesteigert | Muskelkraft, treated aged mice compared with young controls ([1]; treated aged mice vs young control animals): so viel Kraft wie junge Kontrolltiere | Menge an Satellitenzellen ([2]; Abbildung 9, 1 mg/kg): erhöht | Menge an Satellitenzellen ([2]; Abbildung 9, listed as Bay 60-6583, 1 mg/kg): signifikant erhöht | Aufnahme von Glukose [3]: signifikant erhöht | Aufnahme von Glukose ([3]; listed as Bay 60-6583): signifikant gesteigert | Sauerstoffverbrauch [4]: signifikant erhöht | Sauerstoffverbrauch in Bezug auf das veratmete Protein ([5]; Abbildung 4): signifikant erhöht | Sauerstoffverbrauch in Bezug auf das veratmete Protein ([5]; Abbildung 4, listed as Bay 60-6583): signifikant gesteigert | Sauerstoffverbrauch in Bezug auf die Gewebemasse ([6]; Abbildung 1): signifikant erhöht | Sauerstoffverbrauch in Bezug auf die Gewebemasse ([6]; Abbildung 1, listed as Bay 60-6583): signifikant gesteigert | Muskelmasse ([7]; 1 mg/kg): dem alterungsbedingten Verlust von Muskelmasse entgegenwirkt | Muskelmasse ([7]; listed as Bay 60-6583, 1 mg/kg): signifikant gesteigert | Muskelmasse, treated aged mice compared with young controls ([7]; treated aged (20 months) mice vs young (2 months) control animals): vergleichbare Muskelmasse wie junge (2 Monate alte) Kontrolltiere

— patent publication EP3782622A1, “ADENOSINE A2B RECEPTOR AGONIST FOR THE TREATMENT OF MUSCU[…]” (Rheinische Friedrich-Wilhelms-Universität Bonn, priority 2019, dated 2021)
